Patent US9133194B2, “Cyclic tripeptide mimetics as plasmin inhibitors” (priority 2011, dated 2015)
Read-outs that look alike come from different tables or passages of the source.

How the values were obtained:
[1] = target: plasmin (Homo sapiens, UniProt P00747); assay: Enzyme-kinetic determination of inhibition constants, plasmin (Chromozym PL); assay type: biochemical
Text: (§1) The Ki values are the mean value of at least two determinations.

[2] = target: plasma kallikrein (Homo sapiens, UniProt P03952); assay: Enzyme-kinetic determination of inhibition constants, plasma kallikrein (Haemochrom PK); assay type: biochemical; conditions: Tris-HCl buffer pH 8.0, Dixon, mean of at least two determinations
plasma kallikrein, sequence (P03952 391-638 limits assumed): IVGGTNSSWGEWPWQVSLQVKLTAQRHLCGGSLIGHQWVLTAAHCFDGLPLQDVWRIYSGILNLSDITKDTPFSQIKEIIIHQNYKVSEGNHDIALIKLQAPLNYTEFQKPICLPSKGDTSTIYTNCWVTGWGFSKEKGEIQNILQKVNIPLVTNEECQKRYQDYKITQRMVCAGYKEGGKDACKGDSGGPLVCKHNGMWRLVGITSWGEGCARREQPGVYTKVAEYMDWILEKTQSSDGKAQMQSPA
plasma kallikrein, sequence (P03952 20-390 partner limits assumed): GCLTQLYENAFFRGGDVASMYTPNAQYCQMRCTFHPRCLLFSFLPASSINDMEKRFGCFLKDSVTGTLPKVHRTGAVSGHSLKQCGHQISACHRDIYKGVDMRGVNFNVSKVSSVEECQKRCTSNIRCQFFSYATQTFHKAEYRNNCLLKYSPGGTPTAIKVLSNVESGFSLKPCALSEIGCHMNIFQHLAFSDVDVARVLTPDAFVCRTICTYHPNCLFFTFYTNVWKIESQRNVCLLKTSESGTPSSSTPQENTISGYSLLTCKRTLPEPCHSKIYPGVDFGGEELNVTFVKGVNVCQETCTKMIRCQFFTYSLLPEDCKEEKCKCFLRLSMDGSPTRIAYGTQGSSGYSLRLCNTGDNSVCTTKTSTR
Text: as §1

[3] = target: Thrombin (bovine) (Bos taurus, UniProt P00735); assay: Enzyme-kinetic determination of inhibition constants, thrombin (Pefachrome tPA); assay type: biochemical; conditions: Tris-HCl buffer pH 8.0, Dixon, mean of at least two determinations
Text: as §1

[4] = target: Factor Xa (human) (Homo sapiens, UniProt P00742); assay: Enzyme-kinetic determination of inhibition constants, factor Xa (Pefachrome FXa); assay type: biochemical; conditions: Tris-HCl buffer pH 8.0, Dixon, mean of at least two determinations
Factor Xa (human), sequence (P00742 235-488 limits assumed): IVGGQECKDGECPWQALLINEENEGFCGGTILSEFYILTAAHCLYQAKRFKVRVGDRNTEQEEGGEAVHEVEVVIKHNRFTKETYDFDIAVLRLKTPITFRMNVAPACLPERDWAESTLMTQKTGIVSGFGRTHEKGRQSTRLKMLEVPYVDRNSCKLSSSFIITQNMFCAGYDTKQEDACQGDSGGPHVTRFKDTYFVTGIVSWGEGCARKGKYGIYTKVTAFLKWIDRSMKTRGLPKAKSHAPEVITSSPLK
Factor Xa (human), sequence (P00742 41-179 partner limits assumed): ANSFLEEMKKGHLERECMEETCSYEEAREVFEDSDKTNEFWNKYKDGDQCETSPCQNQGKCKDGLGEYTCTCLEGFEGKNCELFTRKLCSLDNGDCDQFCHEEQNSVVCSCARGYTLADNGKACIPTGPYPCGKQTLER
Text: as §1

[5] = target: trypsin; conditions: background, aprotinin; read-out: K for trypsin; cited from earlier work
[6] = cited from earlier work
[7] = Tris-HCl buffer pH 8.0, Dixon, mean of at least two determinations, read-out: Ki Plasmin

plasmin, sequence (P00747 581-810 limits assumed): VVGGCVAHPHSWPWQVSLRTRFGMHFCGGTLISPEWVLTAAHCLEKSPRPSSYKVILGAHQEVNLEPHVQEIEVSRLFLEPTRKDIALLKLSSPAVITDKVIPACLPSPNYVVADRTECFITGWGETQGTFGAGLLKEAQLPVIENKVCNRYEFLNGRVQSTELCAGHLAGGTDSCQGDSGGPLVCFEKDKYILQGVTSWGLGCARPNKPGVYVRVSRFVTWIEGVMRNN
plasmin, sequence (P00747 97-580 partner limits assumed): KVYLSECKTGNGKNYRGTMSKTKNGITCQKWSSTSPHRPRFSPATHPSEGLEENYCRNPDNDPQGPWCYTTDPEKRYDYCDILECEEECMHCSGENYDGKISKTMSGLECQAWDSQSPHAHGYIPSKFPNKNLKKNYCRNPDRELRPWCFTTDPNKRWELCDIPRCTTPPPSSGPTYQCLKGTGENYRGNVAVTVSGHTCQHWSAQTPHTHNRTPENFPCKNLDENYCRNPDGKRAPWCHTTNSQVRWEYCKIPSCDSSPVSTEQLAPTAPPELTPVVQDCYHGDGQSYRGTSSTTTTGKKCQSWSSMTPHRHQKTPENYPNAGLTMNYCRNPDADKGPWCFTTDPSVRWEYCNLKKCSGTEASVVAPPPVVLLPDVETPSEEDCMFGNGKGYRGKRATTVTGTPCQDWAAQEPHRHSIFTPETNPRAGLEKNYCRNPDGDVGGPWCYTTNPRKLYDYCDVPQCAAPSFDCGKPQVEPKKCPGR

Compound: CN(C)S(=O)(=O)N[C@@H]1Cc2ccc(cc2)NC(=O)CN2CCN(CC2)CC(=O)Nc2ccc(cc2)C[C@@H](C(=O)NCc2ccc(C(=N)N)cc2)NC1=O [Inhibitor 14]
- Ki [1]: 5.9 nM
- Ki [2]: 12 µM
- Ki [3]: 4.96 µM
- Ki [4]: 134 µM

Compound: CC1(C)C(=O)Nc2ccc(cc2)C[C@@H](C(=O)NCc2ccc(C(=N)N)cc2)NC(=O)[C@H](NS(=O)(=O)Cc2ccccc2)Cc2ccc(cc2)NC(=O)C(C)(C)N2CCN1CC2 [Inhibitor 7]
- Ki [1, 7]: 2.2 nM
- Ki [2]: 0.077 µM
- Ki [3]: 0.62 µM
- Ki [4]: 1.45 µM

Compound: N=C(N)c1ccc(CNC(=O)[C@@H]2Cc3ccc(cc3)NC(=O)CN3CCN(CC3)CC(=O)Nc3ccc(cc3)C[C@@H](NC(=O)OCc3ccccc3)C(=O)N2)cc1 [Inhibitor 11]
- Ki [1, 7]: 5.4 nM
- Ki [2]: 4.64 µM
- Ki [3]: 46.9 µM
- Ki [4]: 104 µM

Compound: N=C(N)c1ccc(CNC(=O)[C@@H]2Cc3ccc(cc3)NC(=O)CCN3CCN(CCC(=O)Nc4ccc(cc4)C[C@@H](NS(=O)(=O)NC4CCCCC4)C(=O)N2)CC3)cc1 [Inhibitor 1]
- Ki [1]: 0.052 nM
- Ki [2]: 0.6 µM
- Ki [3]: 17 µM
- Ki [4]: 7.4 µM

Compound: N=C(N)c1ccc(CNC(=O)[C@@H]2Cc3ccc(cc3)NC(=O)CCN3CCN(CCC(=O)Nc4ccc(cc4)C[C@@H](NC(=O)OCc4ccccc4)C(=O)N2)CC3)cc1 [Inhibitor 5]
- Ki [1, 7]: 0.77 nM
- Ki [2]: 6.95 µM
- Ki [3]: 44 µM
- Ki [4]: 47.4 µM

Compound: NCc1ccc(CNC(=O)[C@@H]2Cc3ccc(cc3)NC(=O)CCN3CCN(CCC(=O)Nc4ccc(cc4)C[C@@H](NS(=O)(=O)Cc4ccccc4)C(=O)N2)CC3)cc1 [Inhibitor 3]
- Ki [1]: 1.24 nM
- Ki [2]: 6.38 µM
- Ki [3]: 141 µM
- Ki [4]: 78 µM

Compound: N=C(N)NCCCCNC(=O)[C@@H]1Cc2ccc(cc2)NC(=O)CCN2CCN(CCC(=O)Nc3ccc(cc3)C[C@@H](NS(=O)(=O)NC3CCCCC3)C(=O)N1)CC2 [Inhibitor 13]
- Ki [1, 7]: 3.5 nM

Compound: aprotinin
- Ki [5]: 0.0001 µM
- risk of an anaphylactic shock ([6]; aprotinin applied for the first time): < 0.1%
- risk of myocardial infarction and apoplectic stroke ([6]; compared to the control groups): increased
- number of cases of kidney damage requiring subsequent dialysis ([6]; comparison with ε-aminocaproic acid or tranexamic acid (Mangano et al.)): doubling
- risk of an anaphylactic shock ([6]; repeated administration within 200 days): 4-5%

Compound: N=C(N)c1ccc(CNC(=O)[C@@H]2Cc3ccc(cc3)NC(=O)CCN3CCN(CCC(=O)Nc4ccc(cc4)C[C@@H](NC(=O)Cc4ccccc4)C(=O)N2)CC3)cc1 [Inhibitor 4]
- Ki [1, 7]: 8 nM
- Ki [2]: 7.92 µM
- Ki [3]: 41.8 µM
- Ki [4]: 188 µM

Compound: N=C(N)c1ccc(CNC(=O)[C@@H]2Cc3ccc(cc3)NC(=O)CCN3CCN(CCC(=O)Nc4ccc(cc4)C[C@@H](N)C(=O)N2)CC3)cc1 [Inhibitor 6]
- Ki [1]: 12.8 nM
- Ki [2]: 24.5 µM
- Ki [3]: 60.8 µM
- Ki [4]: 405 µM

Compound: N=C(N)c1ccc(CNC(=O)[C@@H]2Cc3ccc(cc3)NC(=O)CN3CCN(CC3)CC(=O)Nc3ccc(cc3)C[C@@H](NS(=O)(=O)NC3CCCCC3)C(=O)N2)cc1 [Inhibitor 2]
- Ki [1]: 0.32 nM
- Ki [2]: 0.319 µM
- Ki [3]: 16 µM
- Ki [4]: 7.9 µM
